Assay results reported in paper PMC11649037, “Monitoring conformational changes in the human neurotransmitter transporter homologue LeuT with ^19F‐NMR spectroscopy” (Journal of Neurochemistry, 2024).

Molecular target: T1, LeuT (Leucine Transporter) (Aquifex aeolicus, UniProt O67854, K398C)
T1 construct: gene snf; LeuT K398C labelled with BTFA, in DDM micelles
Assay: 1D […]-NMR, […] L-ala with […] Na+ (shift to outward-facing closed state)
Format: binding

For `C[C@H](N)C(=O)O` [Alanine], the “1D 19F-NMR, 4 mM L-ala with 200 mM Na+ (shift to outward-facing closed state)” value was “Alanine/Na^+ K398C‐BTFA LeuT (Figure 2e) and Phenylalanine/Na^+ K398C‐BTFA LeuT (Figure 2f) which show a similar shift toward S1 resonance”.
